We go through 31 molecules from patent US20240025883A1, “PYRIMIDIN-2-YL SULFONAMIDE DERIVATIVES” (Hoffmann-La Roche Inc., priority 2021, published 2024).

SMILES strings stand for the structures.

human GPR17 short isoform, sequence (Q13304 29-367): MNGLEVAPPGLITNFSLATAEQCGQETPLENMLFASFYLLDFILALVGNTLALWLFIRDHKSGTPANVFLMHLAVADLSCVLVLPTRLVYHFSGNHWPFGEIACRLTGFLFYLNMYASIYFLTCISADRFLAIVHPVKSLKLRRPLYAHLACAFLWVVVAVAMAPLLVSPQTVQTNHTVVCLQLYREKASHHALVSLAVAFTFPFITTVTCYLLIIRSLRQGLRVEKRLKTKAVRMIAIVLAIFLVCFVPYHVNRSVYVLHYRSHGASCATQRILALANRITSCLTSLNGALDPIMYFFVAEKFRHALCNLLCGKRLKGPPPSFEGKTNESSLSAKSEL

For this assay, the target named is human GPR17 short isoform (Homo sapiens (Human), UniProt Q13304). The experiment in a line: GPR17 cAMP assay (hGPR17 cAMP, antagonist mode against EC80 of MDL29,951). The following applies: CHO-K1 cells stably expressing human GPR17 short isoform; EC80 of agonist MDL29,951; forskolin 15 μM. The format is cell-based. As for the experimental part: GPR17 cAMP Assay Protocol:
CHO-K1 cells stably expressing vector containing untagged human GPR17 short isoform (Roche) were cultured at 37° C./5% CO2 in DMEM (Dulbecco's Modified Eagle Medium):F-12 (1:1) supplemented with 10% foetal bovine serum and 400 μg/ml Geneticin.
Changes in intracellular cyclic adenosine monophosphate (cAMP) levels were quantified using the Nano-TRF Detection Assay kit (Roche Diagnostics, Cat. No. 05214386001). This assay allows for direct cAMP quantification in a homogeneous solution, cAMP is detected based on time-resolved fluorescence energy transfer (TR-FRET) and competitive binding of ruthenylated cAMP and endogenous cAMP to an anti-cAMP monoclonal antibody labeled with AlexaFluor-700. The Ruthenium complex serves as the FRET donor and transfers energy to AlexaFluor-700. The FRET signal is inversely proportional to the cAMP concentration.
CHO-GPR17S cells were detached with Accutase and resuspended in assay buffer consisting of Hank's Balanced Salt Solution (HBSS), 10 mM HEPES (4-(2-hydroxyethyl) piperazine-1-ethanesulfonic acid solution) and 0.1% bovine serum albumin (pH 7.4). The cells were seeded in black 384-well plates (Corning) at a density of 10,000 cells/20 μl assay buffer until the addition of compounds.
Test antagonist compounds were serially diluted in dimethyl sulfoxide (DMSO) and spotted in 384-well plates. The compounds were then diluted in HBSS buffer supplemented with an EC80 concentration of MDL29,951 (3-(2-Carboxy-4,6-dichloroindol-3-yl)propionic acid) (GPR17 agonist) plus 3-Isobutyl-1-methylxanthine (IBMX) (0.5 mM final concentration) and added to the cells at room temperature. Forskolin (15 μM final concentration) was added 5 minutes after the test compounds and the cells were incubated at room temperature for 30 minutes. The assay was stopped by adding cAMP detection mix (containing detergents for cell lysis) for 90 minutes at room temperature.
Cellular cAMP was measured using a Paradigm reader (Molecular Devices). The raw data was used to calculate the FRET signal based on the assay's P-factor as per cAMP kit instructions. The data was normalized to the maximal activity of a reference antagonist and dose response curves were fitted to the percent activity of the test compounds using a sigmoidal dose response model (Genedata Screener).
In general terms: Cyclic AMP is a second messenger, typically raised through Gs and lowered through Gi signalling.
For orientation: IC50 means the concentration that inhibits the measured activity by half. In turn, `COc1nc(NS(=O)(=O)c2c[nH]c3c(OC(F)F)c(Cl)ccc23)ncc1CC(F)F` [Example 188, 6-chloro-N-[5-(2,2-difluoroethyl)-4-methoxy-pyrimidin-2-yl]-7-(difluoromethoxy)-1H-indole-3-sulfonamide] registered a concentration for half-maximal inhibition (IC50) of 28 nM.

The molecule `COc1nc(NS(=O)(=O)c2c[nH]c3c(F)c(C(F)F)ccc23)ncc1OCCF` [Example 247, 6-(difluoromethyl)-7-fluoro-N-[5-(2-fluoroethoxy)-4-methoxy-pyrimidin-2-yl]-1H-indole-3-sulfonamide] came in with an IC50 of 42 nM.

Consider `COc1nc(NS(=O)(=O)c2c[nH]c3cc(Cl)ccc23)nc(OC)c1CCC(F)F` [Example 62, 6-chloro-N-[5-(3,3-difluoropropyl)-4,6-dimethoxy-pyrimidin-2-yl]-1H-indole-3-sulfonamide], for which the half-maximal inhibitory concentration (IC50) came to 12 nM.

In turn, `COc1nc(NS(=O)(=O)c2c[nH]c3cc(Cl)ccc23)nc(OC)c1C#N` [Example 32, 6-chloro-N-(5-cyano-4,6-dimethoxy-pyrimidin-2-yl)-1H-indole-3-sulfonamide] returned an IC50 of 232 nM. This IC50 lies about 19-fold higher than the previous one.

Regarding `COc1nc(NS(=O)(=O)c2c[nH]c3c(OC)c(Cl)ccc23)ncc1CCC(F)F` [Example 187, 6-chloro-N-[5-(3,3-difluoropropyl)-4-methoxy-pyrimidin-2-yl]-7-methoxy-1H-indole-3-sulfonamide], the IC50 is 18 nM.

Turning to `COc1nc(NS(=O)(=O)c2c[nH]c3cc(Cl)ccc23)ncc1OCCC(F)(F)F` [Example 40, 6-chloro-N-[4-methoxy-5-(3,3,3-trifluoropropoxy)pyrimidin-2-yl]-1H-indole-3-sulfonamide], the IC50 is 628 nM.

On to `COc1nc(NS(=O)(=O)c2c[nH]c3cc(Cl)ccc23)ncc1SC(F)F` [Example 37, 6-chloro-N-[5-(difluoromethylthio)-4-methoxy-pyrimidin-2-yl]-1H-indole-3-sulfonamide], for which the IC50 stood at 68 nM. Compared with the last molecule, the IC50 is about 9.2-fold lower.

Take `COc1nc(NS(=O)(=O)c2c[nH]c3nc(Br)ccc23)nc(OC)c1OCCF` [Example 109, 6-bromo-N-[5-(2-fluoroethoxy)-4,6-dimethoxy-pyrimidin-2-yl]-1H-pyrrolo[2,3-b]pyridine-3-sulfonamide]: the half-maximal inhibitory concentration (IC50) came to 36 nM.

Molecule `COc1nc(NS(=O)(=O)c2c[nH]c3cc(CC#N)ccc23)ncc1CC(F)F` [Example 197, 6-(cyanomethyl)-N-[5-(2,2-difluoroethyl)-4-methoxy-pyrimidin-2-yl]-1H-indole-3-sulfonamide] showed an IC50 of 981 nM.

Turning to `COc1nc(NS(=O)(=O)c2csc3nc(Br)ccc23)ncc1OCCF` [Example 146, 6-bromo-N-[5-(2-fluoroethoxy)-4-methoxy-pyrimidin-2-yl]thieno[2,3-b]pyridine-3-sulfonamide], the 50% inhibitory concentration (IC50) was found to be 89 nM.

The molecule `COc1nc(NS(=O)(=O)c2c[nH]c3cc(Cl)ccc23)ncc1CCC(F)F` [Example 48, 6-chloro-N-[5-(3,3-difluoropropyl)-4-methoxy-pyrimidin-2-yl]-1H-indole-3-sulfonamide] yielded an IC50 of 26 nM.

`COc1nc(NS(=O)(=O)c2csc3nc(Br)ccc23)ncc1CCC(F)F` [Example 270, 6-bromo-N-[5-(3,3-difluoropropyl)-4-methoxy-pyrimidin-2-yl]thieno[2,3-b]pyridine-3-sulfonamide] registered a half-inhibitory concentration (IC50) of 72 nM.

In turn, `COc1nc(NS(=O)(=O)c2c[nH]c3nc(Br)ccc23)ncc1CC(F)F` [Example 200, 6-bromo-N-[5-(2,2-difluoroethyl)-4-methoxy-pyrimidin-2-yl]-1H-pyrrolo[2,3-b]pyridine-3-sulfonamide] had an IC50 of 66 nM.

As for `O=S(=O)(Nc1ncc(OCC(F)F)cn1)c1c[nH]c2cc(Cl)ccc12` [Example 34, 6-chloro-N-[5-(2,2-difluoroethoxy)pyrimidin-2-yl]-1H-indole-3-sulfonamide], the IC50 was determined as 924 nM.

Regarding `COc1nc(NS(=O)(=O)c2c[nH]c3cc(Cl)ccc23)ncc1C1CC1` [Example 28, 6-chloro-n-(5-cyclopropyl-4-methoxy-pyrimidin-2-yl)-1h-indole-3-sulfonamide], the 50% inhibitory concentration (IC50) is 653 nM.

Molecule `COc1nc(NS(=O)(=O)c2c[nH]c3cc(Cl)ccc23)nc(OC)c1OC(F)(F)CO` [Example 275, 6-chloro-N-[5-(1,1-difluoro-2-hydroxy-ethoxy)-4,6-dimethoxy-pyrimidin-2-yl]-1H-indole-3-sulfonamide] had an IC50 of 128 nM.

`COc1nc(NS(=O)(=O)c2c[nH]c3nc(Cl)ccc23)ncc1CC(F)F` [Example 203, 6-chloro-N-[5-(2,2-difluoroethyl)-4-methoxy-pyrimidin-2-yl]-1H-pyrrolo[2,3-b]pyridine-3-sulfonamide]: the IC50 was found to be 127 nM.

`CCc1cnc(NS(=O)(=O)c2c[nH]c3cc(Cl)ccc23)nc1OC` [Example 15, 6-chloro-N-(5-ethyl-4-methoxy-pyrimidin-2-yl)-1H-indole-3-sulfonamide] registered a half-maximal inhibitory concentration (IC50) of 132 nM.

The molecule `COc1nc(NS(=O)(=O)c2c[nH]c3cc(Cl)ccc23)ncc1C#N` [Example 23, 6-chloro-N-(5-cyano-4-methoxy-pyrimidin-2-yl)-1H-indole-3-sulfonamide] had an IC50 of 256 nM.

Regarding `COc1nc(NS(=O)(=O)c2c[nH]c3cc(Br)ccc23)ncc1OCCF` [Example 25, 6-bromo-N-[5-(2-fluoroethoxy)-4-methoxy-pyrimidin-2-yl]-1H-indole-3-sulfonamide], the 50% inhibitory concentration (IC50) came out at 23 nM.

Molecule `COc1nc(NS(=O)(=O)c2c[nH]c3c(CC#N)c(Cl)ccc23)ncc1CC(F)F` [Example 232, 6-chloro-7-(cyanomethyl)-N-[5-(2,2-difluoroethyl)-4-methoxy-pyrimidin-2-yl]-1H-indole-3-sulfonamide] came in with a 50% inhibitory concentration (IC50) of 35 nM.

`COc1nc(NS(=O)(=O)c2c[nH]c3cc(Cl)ccc23)nc(OC)c1CCC(F)(F)F` [Example 64, 6-chloro-N-[4,6-dimethoxy-5-(3,3,3-trifluoropropyl)pyrimidin-2-yl]-1H-indole-3-sulfonamide] returned a half-inhibitory concentration (IC50) of 39 nM. The IC50 values of the last two molecules are within 1.5-fold of each other.

For the molecule `COc1nc(NS(=O)(=O)c2csc3c(F)c(Cl)ccc23)ncc1CCC#N` [Example 163, 6-chloro-N-[5-(2-cyanoethyl)-4-methoxy-pyrimidin-2-yl]-7-fluoro-benzothiophene-3-sulfonamide], the IC50 amounted to 216 nM.

In turn, `COc1nc(NS(=O)(=O)c2c[nH]c3c(SC(F)F)c(Cl)ccc23)ncc1CCC#N` [Example 105, 6-chloro-N-[5-(2-cyanoethyl)-4-methoxy-pyrimidin-2-yl]-7-(difluoromethylthio)-1H-indole-3-sulfonamide] came in with an IC50 of 14 nM.

Regarding `COc1nc(NS(=O)(=O)c2c[nH]c3c(S(C)(=O)=O)c(Cl)ccc23)ncc1CC(F)F` [Example 277, 6-chloro-N-[5-(2,2-difluoroethyl)-4-methoxy-pyrimidin-2-yl]-7-mesyl-1h-indole-3-sulfonamide], the IC50 turned out to be 718 nM.

Consider `COCc1c(OC)nc(NS(=O)(=O)c2c[nH]c3cc(Cl)ccc23)nc1OC` [Example 65, 6-chloro-N-[4,6-dimethoxy-5-(methoxymethyl)pyrimidin-2-yl]-1H-indole-3-sulfonamide], for which the IC50 came out at 61 nM.

`COc1nc(NS(=O)(=O)c2c[nH]c3nc(Br)ccc23)ncc1OCCF` [Example 230, 6-bromo-N-[5-(2-fluoroethoxy)-4-methoxy-pyrimidin-2-yl]-1H-pyrrolo[2,3-b]pyridine-3-sulfonamide] returned an IC50 of 41 nM.

With `COc1nc(NS(=O)(=O)c2c[nH]c3nc(C(F)F)ccc23)ncc1OC(F)(F)CF` [Example 238, 6-(difluoromethyl)-N-[4-methoxy-5-(1,1,2-trifluoroethoxy)pyrimidin-2-yl]-1H-pyrrolo[2,3-b]pyridine-3-sulfonamide], the IC50 stood at 383 nM.

Take `COc1nc(NS(=O)(=O)c2csc3nc(Br)ccc23)nc(OC)c1OC(F)F` [Example 269, 6-bromo-N-[5-(difluoromethoxy)-4,6-dimethoxy-pyrimidin-2-yl]thieno[2,3-b]pyridine-3-Sulfonamide]: the half-maximal inhibitory concentration (IC50) was 138 nM.

`COc1nc(NS(=O)(=O)c2c[nH]c3nc(Cl)ccc23)nc(OC)c1CCC(F)F` [Example 121, 6-chloro-N-[5-(3,3-difluoropropyl)-4,6-dimethoxy-pyrimidin-2-yl]-1H-pyrrolo[2,3-b]pyridine-3-sulfonamide] came in with an IC50 of 16 nM.

For the molecule `COc1nc(NS(=O)(=O)c2c[nH]c3cc(F)ccc23)nc(OC)c1OC(F)F` [Example 256, N-[5-(difluoromethoxy)-4,6-dimethoxy-pyrimidin-2-yl]-6-fluoro-1H-indole-3-sulfonamide], the half-inhibitory concentration (IC50) came out at 215 nM.
